Data as given in patent US20110160059A1, “Herbicidal compositions comprising flufenacet” (Bayer CropScience AG, priority 2009, published 2011).

Assays:
Type in all cases: in vivo
[1] = system: VIOAR=Viola arvensis=weed; assay: Greenhouse trial, post-emergence action against weeds (test method 1); details: PO application, about 3 weeks after application
Procedure: (§1) In the standard design of the test, seeds of various broad-leaved weed and weed grass biotypes (origins) were sown in a 8-13 cm diameter pot filled with natural soil of a standard field soil (loamy silt; non-sterile) and covered with a covering soil layer of about 1 cm. The pots were then cultivated in a greenhouse (12-16 h of light, temperature day 20-22° C., night 15-18° C.) until the time of application. The pots were treated on a laboratory track sprayer with spray liquors comprising the compositions according to the invention, mixtures of the prior art or components used individually. Application of the active compounds or active compound combinations formulated as WG, WP, EC or otherwise was carried out at the appropriate growth stages of the plants. The application rate for the spray application was 100-600 l of water/ha. After the treatment, the plants were returned to the greenhouses.
(§2) About 3 weeks after the application, the soil action or/and foliar action was assessed visually according to a scale of 0-100% in comparison to an untreated comparative group: 0%=no noticeable effect compared to the untreated comparative group; 100%=full effect compared to the untreated comparative group.
(§3) (notes: the term “seeds” also includes vegetative propagation forms such as, for example, rhizome pieces; abbreviations used: h light=hours of illumination, g of AS/ha=gram of active substance per hectare, l/ha=liter per hectare, S=sensitive, R=resistant) • 1. Post-emergence action against weeds: seeds of various broad-leaved weed and weed grass biotypes (origins) were sown in a 8-13 cm diameter pot filled with natural soil of a standard field soil (loamy silt; non-sterile) and covered with a covering soil layer of about 1 cm. The pots were then cultivated in a greenhouse (12-16 h of light, temperature day 20-22° C., night 15-18° C.) until the time of application. The pots were treated at various BBCH stages between 11-25 of the seeds/plants, i.e. generally between two to three weeks after the start of the cultivation, on a laboratory track sprayer with spray liquors comprising the compositions according to the invention, mixtures or components used individually, as WG, WP, EC or other formulations. The application rate for the spray application was 100-600 l of water/ha. After the treatment, the plants were returned to the greenhouses and, when required, treated with fertilizer and watered. • 2. Selective post-emergence action: seeds of various crop species (origins) were sown in a 8-13 cm diameter pot filled with natural soil of a standard field soil (loamy silt; non-sterile) and covered with a covering soil layer of about 1 cm. The pots were then cultivated in a greenhouse (12-16 h of light, temperature day 20-22° C., night 15-18° C.) until the time of application. The pots were treated at various BBCH stages between 11-32 of the seeds/plants, i.e. generally between two to four weeks after the start of the cultivation, on a laboratory track sprayer with spray liquors comprising the compositions according to the invention, mixtures or components used individually, as WG, WP, EC or other formulations. The application rate for the spray application was 100-600 l of water/ha. After the treatment, the plants were returned to the greenhouses and, when required, treated with fertilizer and watered. The pots were cultivated in a greenhouse (12-16 h light, temperature day 20-22° C., night 15-18° C.).
(§4) Insofar as herbicidal effects of the compositions according to the invention compared to mixtures of the prior art or compared to components applied individually against economically important mono- and dicotyledonous harmful plants were the center of attention, the synergistic herbicidal activities were calculated using Colby's formula (cf. S. R. Colby; Weeds 15 (1967), 20-22): […]

[2] = system: APESV=Apera spica-venti=weed; assay: as above; details: PO application, about 3 weeks after application
Procedure: as §1, §2, §3, §4

[3] = system: HORVS=Hordeum vulgare, summer barley=crop plant; assay: Greenhouse trial, selective post-emergence action on crop (test method 2)
Procedure: as §1, §2
(notes: the term “seeds” also includes vegetative propagation forms such as, for example, rhizome pieces; abbreviations used: h light=hours of illumination, g of AS/ha=gram of active substance per hectare, l/ha=liter per hectare, S=sensitive, R=resistant) • 1. […]
as §4

Structure (SMILES): CC(Oc1ccc(Oc2ccc(Cl)cc2Cl)cc1)C(=O)O (racemic) [(B) diclofop, (±)-2-[4-(2,4-dichlorophenoxy)phenoxy]propanoic acid]
- activity on VIOAR, visual scale 0-100% vs untreated ([1]; 378 g of AS/ha): 0%
- activity on APESV, visual scale 0-100% vs untreated ([2]; 378 g of AS/ha): 0%
- activity (crop damage) on HORVS, visual scale 0-100% vs untreated ([3]; PO application, 378 g of AS/ha, about 3 weeks after application, greenhouse): 20%

Structure (SMILES): CC(C)N(C(=O)COc1nnc(C(F)(F)F)s1)c1ccc(F)cc1 [(A) flufenacet, N-(4-fluorophenyl)-N-(1-methylethyl)-2-[[5-(trifluoromethyl)-1,3,4-thiadiazol-2-yl]oxy]acetamide]
- activity on VIOAR, visual scale 0-100% vs untreated ([1]; 120 g of AS/ha): 40%
- activity on APESV, visual scale 0-100% vs untreated ([2]; 120 g of AS/ha): 60%
- activity (crop damage) on HORVS, visual scale 0-100% vs untreated ([3]; Hordeum vulgare (summer barley), in vivo, po): 40%

Structure (SMILES): CSc1nnc(C(C)(C)C)c(=O)n1N [(C) metribuzin, 4-amino-6-(1,1-dimethylethyl)-3-(methylthio)-1,2,4-triazin-5(4H)-one]
- activity on VIOAR, visual scale 0-100% vs untreated ([1]; 140 g of AS/ha): 90%
- activity on APESV, visual scale 0-100% vs untreated ([2]; 140 g of AS/ha): 79%
- activity (crop damage) on HORVS, visual scale 0-100% vs untreated ([3]; PO application, 140 g of AS/ha, about 3 weeks after application, greenhouse): 70%
